Converted amounts (≈) assume the structure as drawn. Like-named read-outs stand apart in the source and are kept apart here.
Tests used:
[1] = test system: S. aureus (ATCC 43300) MRSA; assay type: cell-based
E. coli (25922) = test: MIC against bacterial strains; assay type: cell-based
Rhodotorula pilimanae = test: MIC against fungal strains (Table 1); assay type: cell-based
[2] = test system: Cryptococcus neoformans H99; test: MIC against fungal strains (Table 1); assay type: cell-based; details: Cryptococcus neoformans H99
Candida albicans 64124 = test: MIC against fungal strains (Table 1); assay type: cell-based
[3] = test system: S. aureus (ATCC 33591) MRSA; assay type: cell-based
Candida albicans MYA2876 = test: MIC against fungal strains (Table 1); assay type: cell-based; details: Candida albicans MYA2876
S. aureus (ATCC 25923) = test: MIC against bacterial strains; assay type: cell-based
[4] = test system: Fusarium graminearum B4-5A; test: microbe, parasite or virus in culture; assay type: cell-based; details: Fusarium graminearum B4-5A
Rhizopus arrhizus = test: MIC against filamentous and dimorphic fungi, CLSI M27 & M38 (Table 3); assay type: cell-based; details: Rhizopus arrhizus, 24-72 hours, read-out: Minimum inhibitory concentration 100%
P. variatii = test: as above; assay type: cell-based, Paecilomyces variotii; details: Paecilomyces variotii, P. variatii MYA-3630, RPMI 0.165M MOPS, 24-72 hours, read-out: Minimum inhibitory concentration 100%
Saksenaea sp. = test: as above; assay type: cell-based, Saksenaea species; details: 24-72 hours, read-out: Minimum inhibitory concentration 100%
Apaphysomyces = test: MIC against various species, CLSI M27 & M38 (Table 4); assay type: cell-based, Apophysomyces; details: 24-72 hours, read-out: Minimum inhibitory concentration 100%
P. variotil = test: as above; assay type: cell-based, Paecilomyces variotii; details: Paecilomyces variotii, P. variotil QC, RPMI 0.165M MOPS, 24-72 hours, read-out: Minimum inhibitory concentration 100%
Cryptococcus neoformans = test: MIC against yeast, CLSI M27 & M38 (Table 2); details: Cryptococcus neoformans
Candida guillermondii = test: MIC against yeast, CLSI M27 & M38 (Table 2); details: Candida
Candida parapsilosis = test: MIC against yeast, CLSI M27 & M38 (Table 2); details: for Minimum inhibitory concentration 50%: Table 2, RPMI 0.165M MOPS, 24-72 hours; for MIC: Lodderomyces parapsilosis
C. krusei [5] = test: MIC against various species, CLSI M27 & M38 (Table 4); details: Pichia kudriavzevii, ATCC6258, read-out: Minimum inhibitory concentration 50%
Candida glabrata = test: MIC against yeast, CLSI M27 & M38 (Table 2); details: Nakaseomyces glabratus
C. albicans = test: MIC against various species, CLSI M27 & M38 (Table 4); details: Candida albicans
C. parapsilosis = test: as above; details: Lodderomyces parapsilosis, ATCC22019, read-out: Minimum inhibitory concentration 50%
C. krusei [6] = test: MIC against yeast, CLSI M27 & M38 (Table 2); details: Pichia kudriavzevii, ATCC6258, read-out: Minimum inhibitory concentration 50%
C. auris = test: MIC against various species, CLSI M27 & M38 (Table 4); details: Candidozyma auris
Candida auris = test: MIC against yeast, CLSI M27 & M38 (Table 2); details: Candidozyma auris

## NC1CC(N)C(O[C@H]2OC(CNC(=O)CCCc3ccc4ccc5cccc6ccc3c4c56)[C@@H](O)C(O)C2O)[C@H](O)C1OC1O[C@H](CO)C(O)C(N)[C@H]1O (some centres unmarked) [KI09]
[1]
  Minimum inhibitory concentration: 32 µg/mL (≈ 42.4 µM)
E. coli (25922)
  Minimum inhibitory concentration: 128 µg/mL (≈ 170 µM)
Rhodotorula pilimanae
  Minimum inhibitory concentration: 16 µg/mL (≈ 21.2 µM)
[2]
  Minimum inhibitory concentration: 16 µg/mL (≈ 21.2 µM)
Candida albicans 64124
  Minimum inhibitory concentration: 16 µg/mL (≈ 21.2 µM)
[3]
  Minimum inhibitory concentration: 128 µg/mL (≈ 170 µM)
Candida albicans MYA2876
  Minimum inhibitory concentration: 16 µg/mL (≈ 21.2 µM)
S. aureus (ATCC 25923)
  Minimum inhibitory concentration: 32 µg/mL (≈ 42.4 µM)
[4]
  Minimum inhibitory concentration: 16 µg/mL (≈ 21.2 µM)

## CC[C@@H]([C@H](C)O)n1ncn(-c2ccc(N3CCN(c4ccc(OC[C@@H]5CO[C@@](Cn6cncn6)(c6ccc(F)cc6F)C5)cc4)CC3)cc2)c1=O [Posaconazole, reference compound]
Rhizopus arrhizus; Rhizopus arrhizus 99-880, RPMI 0.165M MOPS
  MIC: 1 µg/mL (≈ 1.43 µM)
Rhizopus arrhizus; Rhizopus arrhizus 99-892, RPMI 0.165M MOPS
  MIC: 0.25 µg/mL (≈ 0.357 µM)
Rhizopus arrhizus; Rhizopus arrhizus RA1, RPMI 0.165M MOPS
  MIC: 0.25 µg/mL (≈ 0.357 µM)
P. variatii
  MIC: ≤ 0.03 µg/mL
Saksenaea sp.; Saksenaea sp. SK1, RPMI 0.165M MOPS
  MIC: ≤ 0.03 µg/mL
Saksenaea sp.; Saksenaea sp. SK2, RPMI 0.165M MOPS
  MIC: ≤ 0.03 µg/mL
Saksenaea sp.; Saksenaea sp. SK3, RPMI 0.165M MOPS
  MIC: 0.125 µg/mL (≈ 0.178 µM)
Apaphysomyces; Apaphysomyces APO1, RPMI 0.165M MOPS
  MIC: 0.125 µg/mL (≈ 0.178 µM)
Apaphysomyces; Apaphysomyces APO2, RPMI 0.165M MOPS
  MIC: 0.125 µg/mL (≈ 0.178 µM)
Apaphysomyces; Apaphysomyces APO3, RPMI 0.165M MOPS
  MIC: 0.25 µg/mL (≈ 0.357 µM)
P. variotil
  MIC: ≤ 0.03 µg/mL

## N[C@@H]1[C@@H](O)[C@@H](O[C@@H]2[C@@H](O)[C@H](O[C@H]3O[C@H](CNC(=O)c4cc(-c5ccccc5)nc5ccccc45)[C@@H](O)[C@H](O)[C@H]3O)[C@@H](N)C[C@H]2N)O[C@H](CO)[C@H]1O [KI08]
E. coli (25922)
  Minimum inhibitory concentration: >256 µg/mL
Rhodotorula pilimanae
  Minimum inhibitory concentration: 256 µg/mL (≈ 358 µM)
[2]
  Minimum inhibitory concentration: 128 µg/mL (≈ 179 µM)
Candida albicans 64124
  Minimum inhibitory concentration: >256 µg/mL
Candida albicans MYA2876
  Minimum inhibitory concentration: >256 µg/mL
S. aureus (ATCC 25923)
  Minimum inhibitory concentration: >256 µg/mL
[4]
  Minimum inhibitory concentration: >256 µg/mL

## OC(Cn1cncn1)(Cn1cncn1)c1ccc(F)cc1F [Fluconazole, reference compound]
Cryptococcus neoformans; read-out: Minimum inhibitory concentration 50%, Cryptococcus neoformans CN1, RPMI 0.165M MOPS, 24-72 hours
  MIC: 8 µg/mL (≈ 26.1 µM)
Cryptococcus neoformans; read-out: Minimum inhibitory concentration 50%, Cryptococcus neoformans H99, RPMI 0.165M MOPS, 24-72 hours
  MIC: 16 µg/mL (≈ 52.2 µM)
Cryptococcus neoformans; read-out: Minimum inhibitory concentration 50%, Cryptococcus neoformans USC1597, RPMI 0.165M MOPS, 24-72 hours
  MIC: 2 µg/mL (≈ 6.53 µM)
Candida guillermondii; read-out: Minimum inhibitory concentration 50%, Candida guillermondii CGUI1, RPMI 0.165M MOPS, 24-72 hours
  MIC: 1 µg/mL (≈ 3.27 µM)
Candida guillermondii; read-out: Minimum inhibitory concentration 50%, Candida guillermondii CGUI2, RPMI 0.165M MOPS, 24-72 hours
  MIC: 2 µg/mL (≈ 6.53 µM)
Candida guillermondii; read-out: Minimum inhibitory concentration 50%, Candida guillermondii CGUI3, RPMI 0.165M MOPS, 24-72 hours
  MIC: 2 µg/mL (≈ 6.53 µM)
Candida parapsilosis; Candida parapsilosis CP2
  Minimum inhibitory concentration 50%: 0.5 µg/mL (≈ 1.63 µM)
Candida parapsilosis; Candida parapsilosis CP3
  Minimum inhibitory concentration 50%: 0.5 µg/mL (≈ 1.63 µM)
Candida parapsilosis; ATCC22019, read-out: Minimum inhibitory concentration 50%
  MIC: 1 µg/mL (≈ 3.27 µM)
Candida parapsilosis; read-out: Minimum inhibitory concentration 50%
  MIC: 0.5 µg/mL (≈ 1.63 µM)
C. krusei [5]
  MIC: > 16 µg/mL
Candida glabrata; read-out: Minimum inhibitory concentration 50%, Candida glabrata CG1, RPMI 0.165M MOPS, 24-72 hours
  MIC: > 64 µg/mL
Candida glabrata; read-out: Minimum inhibitory concentration 50%, Candida glabrata CG2, RPMI 0.165M MOPS, 24-72 hours
  MIC: 8 µg/mL (≈ 26.1 µM)
Candida glabrata; read-out: Minimum inhibitory concentration 50%, Candida glabrata CG3, RPMI 0.165M MOPS, 24-72 hours
  MIC: 64 µg/mL (≈ 209 µM)
C. albicans; read-out: Minimum inhibitory concentration 50%, C. albicans CA1, RPMI 0.165M MOPS, 24-72 hours
  MIC: ≤ 0.125 µg/mL
C. albicans; read-out: Minimum inhibitory concentration 50%, C. albicans CA2, RPMI 0.165M MOPS, 24-72 hours
  MIC: ≤ 0.125 µg/mL
C. albicans; read-out: Minimum inhibitory concentration 50%, C. albicans CA3, RPMI 0.165M MOPS, 24-72 hours
  MIC: > 64 µg/mL
C. parapsilosis
  MIC: 1 µg/mL (≈ 3.27 µM)
C. krusei [6]
  MIC: 16 µg/mL (≈ 52.2 µM)
C. auris; read-out: Minimum inhibitory concentration 50%, C. auris DI17-46, RPMI 0.165M MOPS, 24-72 hours
  MIC: > 64 µg/mL
C. auris; read-out: Minimum inhibitory concentration 50%, C. auris DI17-47, RPMI 0.165M MOPS, 24-72 hours
  MIC: > 64 µg/mL
C. auris; read-out: Minimum inhibitory concentration 50%, C. auris DI17-48, RPMI 0.165M MOPS, 24-72 hours
  MIC: 2 µg/mL (≈ 6.53 µM)
Candida auris; read-out: Minimum inhibitory concentration 50%, Candida auris CAU1, RPMI 0.165M MOPS, 24-72 hours
  MIC: 2 µg/mL (≈ 6.53 µM)
Candida auris; read-out: Minimum inhibitory concentration 50%, Candida auris CAU2, RPMI 0.165M MOPS, 24-72 hours
  MIC: 1 µg/mL (≈ 3.27 µM)
Candida auris; read-out: Minimum inhibitory concentration 50%, Candida auris CAU3, RPMI 0.165M MOPS, 24-72 hours
  MIC: 0.5 µg/mL (≈ 1.63 µM)
Candida auris; read-out: Minimum inhibitory concentration 50%, Candida auris CAU4, RPMI 0.165M MOPS, 24-72 hours
  MIC: > 64 µg/mL
Candida auris; read-out: Minimum inhibitory concentration 50%, Candida auris CAU5, RPMI 0.165M MOPS, 24-72 hours
  MIC: 16 µg/mL (≈ 52.2 µM)
Candida auris; read-out: Minimum inhibitory concentration 50%, Candida auris CAU6, RPMI 0.165M MOPS, 24-72 hours
  MIC: 2 µg/mL (≈ 6.53 µM)
Candida auris; read-out: Minimum inhibitory concentration 50%, Candida auris CAU7, RPMI 0.165M MOPS, 24-72 hours
  MIC: 2 µg/mL (≈ 6.53 µM)
Candida auris; read-out: Minimum inhibitory concentration 50%, Candida auris DI17-46, RPMI 0.165M MOPS, 24-72 hours
  MIC: > 64 µg/mL
Candida auris; read-out: Minimum inhibitory concentration 50%, Candida auris DI17-47, RPMI 0.165M MOPS, 24-72 hours
  MIC: > 64 µg/mL
Candida auris; read-out: Minimum inhibitory concentration 50%, Candida auris DI17-48, RPMI 0.165M MOPS, 24-72 hours
  MIC: 2 µg/mL (≈ 6.53 µM)

## CCCCCCCCCCCC(=O)NC[C@H]1O[C@H](O[C@H]2[C@H](O)[C@@H](O[C@H]3O[C@H](CO)[C@@H](O)[C@H](N)[C@H]3O)[C@H](N)C[C@@H]2N)[C@H](O)[C@@H](O)[C@@H]1O [KI04]
[1]
  Minimum inhibitory concentration: 128 µg/mL (≈ 192 µM)
E. coli (25922)
  Minimum inhibitory concentration: 32 µg/mL (≈ 48 µM)
Rhodotorula pilimanae
  Minimum inhibitory concentration: 16 µg/mL (≈ 24 µM)
[2]
  Minimum inhibitory concentration: 8 µg/mL (≈ 12 µM)
Candida albicans 64124
  Minimum inhibitory concentration: 32 µg/mL (≈ 48 µM)
[3]
  Minimum inhibitory concentration: 128 µg/mL (≈ 192 µM)
Candida albicans MYA2876
  Minimum inhibitory concentration: 32 µg/mL (≈ 48 µM)
S. aureus (ATCC 25923)
  Minimum inhibitory concentration: 32 µg/mL (≈ 48 µM)
[4]
  Minimum inhibitory concentration: 16 µg/mL (≈ 24 µM)

## CCCCCCCC(=O)NCC1O[C@H](OC2C(N)CC(N)C(OC3O[C@H](CO)C(O)C(N)[C@H]3O)[C@H]2O)C(O)C(O)[C@@H]1O (some centres unmarked) [KI02]
E. coli (25922)
  Minimum inhibitory concentration: >256 µg/mL
Rhodotorula pilimanae
  Minimum inhibitory concentration: >256 µg/mL
[2]
  Minimum inhibitory concentration: >256 µg/mL
Candida albicans 64124
  Minimum inhibitory concentration: >256 µg/mL
Candida albicans MYA2876
  Minimum inhibitory concentration: >256 µg/mL
S. aureus (ATCC 25923)
  Minimum inhibitory concentration: >256 µg/mL
[4]
  Minimum inhibitory concentration: >256 µg/mL

## CCCCCCCCCCCCCC(=O)NCC1O[C@H](OC2C(N)CC(N)C(OC3O[C@H](CO)C(O)C(N)[C@H]3O)[C@H]2O)C(O)C(O)[C@@H]1O (some centres unmarked) [KI05]
[1]
  Minimum inhibitory concentration: 32 µg/mL (≈ 46.1 µM)
E. coli (25922)
  Minimum inhibitory concentration: 64 µg/mL (≈ 92.1 µM)
Rhodotorula pilimanae
  Minimum inhibitory concentration: 4 µg/mL (≈ 5.76 µM)
[2]
  Minimum inhibitory concentration: 4 µg/mL (≈ 5.76 µM)
Candida albicans 64124
  Minimum inhibitory concentration: 16 µg/mL (≈ 23 µM)
[3]
  Minimum inhibitory concentration: 32 µg/mL (≈ 46.1 µM)
Candida albicans MYA2876
  Minimum inhibitory concentration: 16 µg/mL (≈ 23 µM)
S. aureus (ATCC 25923)
  Minimum inhibitory concentration: 16 µg/mL (≈ 23 µM)
[4]
  Minimum inhibitory concentration: 8 µg/mL (≈ 11.5 µM)

## Neomycin [reference compound]
E. coli (25922)
  Minimum inhibitory concentration: 2 µg/mL
S. aureus (ATCC 25923)
  Minimum inhibitory concentration: 2 µg/mL

— patent publication US20210230203A1, “Amphiphilic Kanamycin Compositions and Methods” (priority 2020, published 2021)
